{"source": "paper PMC8267677", "about": "“Inhibitory Mechanisms of Lusianthridin on Human Platelet Aggregation” (International Journal of Molecular Sciences, 2021)", "key": {"[1]": {"target": "T1, cyclooxygenase-1 (COX-1) (Ovis aries, UniProt P05979)", "T1 construct": "gene PTGS1", "T1 sequence (P05979 25-600)": "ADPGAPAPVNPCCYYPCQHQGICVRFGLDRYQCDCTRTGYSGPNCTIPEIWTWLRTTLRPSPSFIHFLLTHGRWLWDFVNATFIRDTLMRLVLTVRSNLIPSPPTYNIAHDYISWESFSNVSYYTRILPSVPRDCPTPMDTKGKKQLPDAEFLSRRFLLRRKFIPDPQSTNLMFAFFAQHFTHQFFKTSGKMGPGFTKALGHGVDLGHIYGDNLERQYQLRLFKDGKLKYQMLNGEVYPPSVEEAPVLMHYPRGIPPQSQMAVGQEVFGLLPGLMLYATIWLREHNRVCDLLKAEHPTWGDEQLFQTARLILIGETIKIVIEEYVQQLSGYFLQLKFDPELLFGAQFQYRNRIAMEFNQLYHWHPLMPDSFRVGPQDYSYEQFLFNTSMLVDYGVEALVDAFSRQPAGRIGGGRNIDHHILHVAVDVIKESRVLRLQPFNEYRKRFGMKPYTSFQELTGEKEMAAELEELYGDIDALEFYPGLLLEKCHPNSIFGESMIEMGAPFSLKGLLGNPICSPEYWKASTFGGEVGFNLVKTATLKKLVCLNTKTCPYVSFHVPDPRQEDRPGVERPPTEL", "assay": "COX fluorescent inhibitor screening assay kit (Cayman), ADHP/resorufin readout", "assay_type": "biochemical"}, "[2]": {"target": "T2, cyclooxygenase-2 (COX-2) (Homo sapiens, UniProt P35354)", "T2 construct": "gene PTGS2", "T2 sequence (P35354 18-604)": "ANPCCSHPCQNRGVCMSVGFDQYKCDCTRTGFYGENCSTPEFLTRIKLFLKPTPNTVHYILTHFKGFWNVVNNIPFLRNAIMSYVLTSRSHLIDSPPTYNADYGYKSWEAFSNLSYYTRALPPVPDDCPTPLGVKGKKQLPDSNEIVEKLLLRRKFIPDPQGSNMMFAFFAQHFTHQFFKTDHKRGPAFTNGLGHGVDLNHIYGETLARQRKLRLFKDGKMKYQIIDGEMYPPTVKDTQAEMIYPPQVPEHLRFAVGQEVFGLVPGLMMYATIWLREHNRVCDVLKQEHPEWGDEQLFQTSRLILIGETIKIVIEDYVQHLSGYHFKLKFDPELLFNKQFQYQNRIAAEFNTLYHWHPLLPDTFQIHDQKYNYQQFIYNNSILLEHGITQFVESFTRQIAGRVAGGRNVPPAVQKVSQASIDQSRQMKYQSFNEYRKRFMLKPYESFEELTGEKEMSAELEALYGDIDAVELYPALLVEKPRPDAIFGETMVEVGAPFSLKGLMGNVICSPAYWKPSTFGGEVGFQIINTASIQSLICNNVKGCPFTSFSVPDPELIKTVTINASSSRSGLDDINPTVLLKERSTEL", "assay": "COX fluorescent inhibitor screening assay kit (Cayman), ADHP/resorufin readout", "assay_type": "biochemical"}}, "data": [{"compound": "COc1cc(O)c2c(c1)CCc1cc(O)ccc1-2", "note": "[lusianthridin]", "values": [{"measurement": "IC50", "setting": "[1]", "value": "10.8 ± 1.12", "unit": "µM"}, {"measurement": "IC50", "setting": "[2]", "value": 170, "unit": "nM"}]}]}
